Structures can show the parent of a compound that is named as a salt.
Columns and labels:
[1] = Body weight gain and epididymal fat pad in the DIO mouse model, Compound 13e (Example 8); format: in vivo, C57BU6 mice; conditions: 25 or 50 mg/kg twice daily oral gavage, 21 days
Description: The objective of this study was to determine the effect of one analog according to the invention, namely Compound 13e, on body weight gain in the Diet-Induced Obesity (DIO) mouse model.
C57BU6 mice were received at 7-8 weeks of age and fed a high fat diet (60% of calories from fat) for 8 weeks. Fasted glycemia and body weight values were used to randomize the mice into control and treatment groups (n=8). The average basal glycemia was between 213 and 215 mg/dL for all groups. The animals were treated twice daily by oral gavage with Compound 13e (25 or 50 mg per kg of body weight), and the control group received vehicle (200 mM bicarbonate buffer/0.1% Tween-20™, pH =9) alone. The animals were treated for 21 days. Body weight of the mice was measured on a frequent basis during the treatment. At the end of the study, the epididymal fat pads were isolated and weighed. Data are expressed as mean±SEM of body weight and mean±SEM of fat pad weight.

[2] = Body weight of DIO mice, 4-hydroxyisoleucine and Rimonabant alone and in combination (Example 7); format: in vivo, C57BU6 mice; conditions: oral
Description: C57BU6 mice were received at 7-8 weeks of age and fed a high fat diet (60% of calories from fat) for 8 weeks. Seven days prior to treatment, animals were randomized based on their body weight and fasted glycemia values into control and treated groups (n=8). The animals were treated by oral gavage twice daily with 4-OH (50 mg/kg of body weight; group 2), once daily in the afternoon with Rimonabant (0.1 mg/kg; group 3), and a combination of the two treatments (4-OH 50 mg/kg twice daily +Rimonabant 0.1 mg/kg once daily; group 4). The control group (group 1) received vehicle alone twice daily. After 3 weeks of treatment (day 22), the doses were increased as follows: 4-OH 100 mg/kg twice daily (group 2), Rimonabant 1 mg/kg once daily (group 3), and the combination (4-OH 100 mg/kg twice daily+Rimonabant 1 mg/kg once daily; group 4). The animals were treated for 1 week with these higher doses. Body weight of the mice was recorded every day for all groups from Day 6 to Day 28.

[3] = Body weight gain in C57BU6 mice shifted to a high fat diet, analogs and isomers, 3 days (Example 9); format: in vivo; conditions: 100 mg/kg twice daily oral gavage; for body weight gain induced by the high fat diet: C57BU6 mice on high fat diet
Description: C57BU6 mice were received at 6-7 weeks of age and fed a standard commercial chow for 1 week (acclimation period). The animals were randomized based on their body weight values, into control and treatment groups (n=6). Then, animals were shifted to a high fat diet (60% of calories from fat) and treated twice daily by oral gavage with 4-hydroxyisoleucine (4-OH, compound 14a) or different analogs and isomers of 4-OH at the dose of 100 mg per kg of body weight for 3 days. The control group (Control HFD) received vehicle (water) alone and a group was kept under standard chow (Control Lean). Body weight of the mice was recorded daily. Two different experiments were run and the effect on body weight gain of selected analogs and isomers according to the invention is presented in FIG. 22A (Experiment 1) and FIG. 22B (Experiment 2).

[4] = Body weight of DIO mice, 4-hydroxyisoleucine and metformin alone and in combination (Example 6); format: in vivo, C57BU6 mice; conditions: DIO mice, 21 days
Description: C57BU6 mice were received at 7-8 weeks of age and fed a high fat diet (60% of calories from fat) for 8 weeks. Fasted glycemia was checked and animals with readings between 200 and 220 mg/dL were included in the study. The animals were randomized based on their body weights and glycemia values into control and treatment groups (n=8). […] The control group received vehicle (water) alone. The animals were treated for 21 days. Body weight of the mice was measured on the first day of treatment and on days 3, 7, 10, 14, 17, and 21. All data are expressed as mean±SEM.

[5] = cited from earlier work
[6] = Weight gain and epididymal fat of DIO-C57Bl/6 mice, 4-hydroxyisoleucine and Exendin-4 alone or in combination (Example 5); format: in vivo, C57BI/6 mice; conditions: s.c., 21 days
Description: (§1) Glycemic response was monitored by an Oral Glucose Tolerance Test (OGTT) performed on days 0, 7, 14, and 21 of treatment.
(§2) A total of 56 animals were used in the study. The animals were distributed into 7 groups (5 treated, 1 normal diet control, and 1 high fat diet control group). Each group was composed of 8 animals. […] For the three weeks of treatment, the test agents were dissolved in sterile saline for injection (USP). 4-Hydroxyisoleucine was kept at 4° C. (administration to groups 3, 4, and 7) while a frozen aliquot of Exendin-4 was thawed each dosing day for administration to groups 5, 6, and 7. Control animals received sterile saline, twice daily (groups 1 and 2). […] Animals from groups 5 and 6 received sterile saline as the AM treatment, while the PM treatment consisted of 0.05 and 0.01 mg/kg of Exendin-4, respectively. For Group 7, the AM treatment consisted of 50 mg/kg 4-OH only, while the PM treatment consisted of 0.01 mg/kg of Exendin-4+50 mg/kg of 4-OH. All groups were treated by subcutaneous injection.

[7] = Oral Glucose Tolerance Test (OGTT) in DIO mice, 4-hydroxyisoleucine and Exendin-4 alone or in combination (Example 5); format: in vivo, C57BI/6 mice; conditions: single agent, 4-OH 50 mg/kg or Exendin-4 0.01 mg/kg, after 7, 14 and 21 days of treatment
Description: as §1, §2
On days 0, 7, 14, and 21, animals fasted for approximately 5 hours were challenged with an Oral Glucose Tolerance Test (OGTT) at 5 hours post-AM test agent administration. Whole blood glucose levels were monitored using a hand-held glucometer prior to OGTT and for up to 2 hours post-glucose challenge.

For `N[C@H](C(=O)O)[C@@H]1CCCC[C@H]1O` [Compound 13e, (S)-2-amino-2-((1S,2R)-2-hydroxycyclohexyl)acetic acid], the “body weight gain compared to vehicle treated mice” value [1] was “reduction in body weight gain”, the “dose dependence of the effect on body weight gain” value ([1]; DIO mice) was “dose-dependent” and the “epididymal fat pad weight” value ([1]; DIO mice, grams per 10 grams of body weight) was “reduction of epididymal fat pad weight”.

In the case of `Cc1c(C(=O)NN2CCCCC2)nn(-c2ccc(Cl)cc2Cl)c1-c1ccc(Cl)cc1` [Rimonabant, 5-(4-Chlorophenyl)-1-(2,4-dichlorophenyl)-4-methyl-N-(piperidin-1-yl)-1H-pyrazole-3-carboxamide, reference compound], the “body weight gain after 21 days (low dosage treatment)” value ([2]; 4-OH 50 mg/kg twice daily, Rimonabant 0.1 mg/kg once daily, alone or in combination) is reported as “slight reduction of body weight gain” and the “body weight after dose increase (day 22 to 28)” value ([2]; 4-OH 100 mg/kg twice daily, Rimonabant 1 mg/kg once daily, alone or in combination (combination compared to each compound separately)) is reported as “immediately reduced the body weight”.

In the case of `C[C@H]([C@@H](C)O)[C@@H](N)C(=O)O` [compound 14aa, (2R,3S,4R)-4-Hydroxyisoleucine], the “body weight gain induced by the high fat diet” value (from here on “body weight gain induced”) [3] is reported as “reduced body weight gain induced by the high fat diet”.

In the case of `CC(C)(C)C(O)CC(N)C(=O)O` (centres unmarked) [compound 62, 2-amino-4-hydroxy-5,5-dimethyl-hexanoic acid], the “efficacy on body weight gain relative to compound #14a” value [3] is reported as “greater efficacy than the SRS isomer of 4-OH” and the “body weight gain induced” value [3] is reported as “reduced body weight gain induced by the high fat diet”.

In the case of `CC1(O)CC(C(=O)O)NCC1O` (centres unmarked) [compound 65a, 4-methyl-4,5-dihydroxypipecolic acid], the “efficacy on body weight gain relative to compound #14a” value [3] is reported as “greater efficacy than the SRS isomer of 4-OH” and the “body weight gain induced” value [3] is reported as “reduced body weight gain induced by the high fat diet”.

With `O=C(O)[C@@H]1C[C@H](O)CN1` [compound 75, cis-4-hydroxyproline] the “body weight gain induced” value [3] was “reduced body weight gain induced by the high fat diet”.

For `COC(=O)[C@@H]1C[C@H](O)CN1` [compound 76, cis-4-hydroxyproline methyl ester HCl salt], the “body weight gain induced” value [3] was “reduced body weight gain induced by the high fat diet”.

In the case of `CC(=O)N[C@@H]1C(=O)O[C@@H](C)[C@@H]1C` [compound 104], the “body weight gain induced” value [3] is reported as “reduced body weight gain induced by the high fat diet”.

For `COC(=O)[C@H]1C[C@@H](O)CN1` [compound 202], the “body weight gain induced” value [3] was “reduced body weight gain induced by the high fat diet”.

For `CN(C)C(=N)N=C(N)N` [metformin], the “body weight as compared to vehicle-treated mice” value ([4]; 100 mg/kg twice daily oral, only 4-OH significant (p<0.01 4-OH, p=0.27 metformin)) is given as “reduction of their body weight”, the “body weight compared to control DIO mice, given alone” value ([4]; 4-OH 50 mg/kg or metformin 25 mg/kg twice daily oral) is given as “no significant effect on body weight” and the blood glucose levels ([5]; by increasing insulin sensitivity (Stumvoll et al. 1995)) is given as “lowers blood glucose levels”. For the same compound, the body weight ([5]; most studies conducted in patients with type 2 diabetes (Hundal et al. 2003)) was “reduce body weight” and the weight ([5]; obese individuals without diabetes (Glueck et al. 2001)) was “induced weight loss”.

In the case of “Exendin-4: glucagon-like peptide 1 (GLP-1) receptor agonist”, the body weight gain ([6]; 4-OH 50 mg/kg twice daily, Exendin-4 0.01 mg/kg (PM), alone or in combination) is reported as “decrease in body weight gain”, the “weight of epididymal fat” value ([6]; 4-OH 100 mg/kg, Exendin-4 0.01 mg/kg, combination 4-OH 50 mg/kg + Exendin-4 0.01 mg/kg) is reported as “not effective” and the “weight of epididymal fat” value ([6]; Exendin-4 0.05 mg/kg) is reported as “effective”. The “glycemic levels following OGTT challenge” value [7] was “effective”.

Reference: patent US20060223884A1, “Compounds and compositions for use in the prevention and treatment of obesity and related syndromes” (priority 2005, published 2006)
